pIC50: −log10 of the molar value. Values after ≈ are worked out from the molar mass of the structure shown. Active and inactive are the calls of the source. The calls are words filed in the database; no cut-off is given here.
What was measured:
[1] = test system: Proteus mirabilis; assay: Inhibition of IMP4 in Proteus mirabilis isolate 19 assessed as potentiation of meropenem-induced antibacterial activity by measuring meropenem MIC after 24 hrs by broth microdilution method (reference value: 320 ug/ml)
[2] = target: T1, Metallo-beta-lactamase NDM-4 (Escherichia coli) (UniProt H6WZS9); assay: Inhibition of Escherichia coli NDM4 assessed as potentiation of meropenem-induced antibacterial activity by measuring bacterial growth rate at 64 ug/mL after 24 hrs in presence of ZnCl2 by broth microdilution method relative to control
T1 sequence (whole entry): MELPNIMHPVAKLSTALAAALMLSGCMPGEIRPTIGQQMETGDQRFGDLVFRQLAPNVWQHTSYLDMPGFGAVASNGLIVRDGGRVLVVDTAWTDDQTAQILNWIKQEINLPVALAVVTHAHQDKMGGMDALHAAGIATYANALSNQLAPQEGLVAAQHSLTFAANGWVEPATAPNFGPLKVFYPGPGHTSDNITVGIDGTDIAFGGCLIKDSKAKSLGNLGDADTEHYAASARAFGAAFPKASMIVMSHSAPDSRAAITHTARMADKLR

[3] = target: T1, Metallo-beta-lactamase NDM-4 (Escherichia coli); assay: Inhibition of NDM4 in Escherichia coli isolate 3 assessed as potentiation of meropenem-induced antibacterial activity by measuring meropenem MIC after 24 hrs by broth microdilution assay (reference value: 1280 ug/ml)
[4] = test system: Escherichia coli; assay: Effect on growth of Escherichia coli isolate 14 after 24 hrs by broth microdilution method; format: organism-based
[5] = test system: Citrobacter freundii; assay: Inhibition of NDM1 in Citrobacter freundii clinical isolate 7 assessed as potentiation of meropenem-induced antibacterial activity by measuring meropenem MIC after 24 hrs by broth microdilution assay
[6] = test system: Enterobacter cloacae; assay: Inhibition of IMP4 in Enterobacter cloacae isolate 15 assessed as potentiation of meropenem-induced antibacterial activity by measuring meropenem MIC after 24 hrs by broth microdilution method (reference value: 32 ug/ml)
[7] = target: T1, Metallo-beta-lactamase NDM-4 (Escherichia coli); assay: (§1) Inhibition of NDM4 in Escherichia coli isolate 3 assessed as potentiation of meropenem-induced bactericidal activity at 4 times MIC incubated for 24 hrs followed by replating on agar plates for 16 to 18 hrs and measured up to 24 hrs by time kill assay
[8] = test system: Citrobacter freundii; assay: Effect on growth of Citrobacter freundii isolate 7 after 24 hrs by broth microdilution assay; format: organism-based
[9] = test system: Proteus mirabilis; assay: Effect on growth of Proteus mirabilis isolate 19 after 24 hrs by broth microdilution method; format: organism-based
[10] = test system: Escherichia coli; assay: Effect on growth of Escherichia coli isolate 11 after 24 hrs by broth microdilution method; format: organism-based
[11] = test system: Klebsiella pneumoniae; assay: Inhibition of IMP4 in Klebsiella pneumoniae isolate 17 assessed as potentiation of meropenem-induced antibacterial activity by measuring meropenem MIC after 24 hrs by broth microdilution method (reference value: 32 ug/ml)
[12] = target: T1, Metallo-beta-lactamase NDM-4 (Escherichia coli); assay: Inhibition of Escherichia coli NDM4 assessed as potentiation of meropenem-induced antibacterial activity by measuring reduction in bacterial growth at 64 ug/mL after 24 hrs by broth microdilution method relative to control
[13] = test system: Escherichia coli; assay: Effect on growth of NDM4-positive Escherichia coli assessed as bacterial growth at 64 ug/mL after 24 hrs by broth microdilution method relative to control; format: organism-based
[14] = test system: Escherichia coli; assay: Inhibition of NDM1 in Escherichia coli isolate 9 assessed as potentiation of meropenem-induced antibacterial activity by measuring meropenem MIC after 24 hrs by broth microdilution assay
[15] = test system: Enterobacter cloacae; assay: Effect on growth of Enterobacter cloacae isolate 5 after 24 hrs by broth microdilution assay; format: organism-based
[16] = test system: Escherichia coli ATCC 25922; assay: Inhibition of IMP-4 in Escherichia coli ATCC 25922 assessed as potentiation of meropenem-induced antibacterial activity by measuring zone of inhibition by agar disk diffusion method
[17] = Cytotoxicity against human HeLa cells assessed as inhibition of growth at 1000 ug/mL after 24 hrs by CCK8 assay relative to control; format: cell-based; conditions: read-out: GI
[18] = test system: Enterobacter cloacae; assay: Inhibition of NDM1 in Enterobacter cloacae isolate 5 assessed as potentiation of meropenem-induced antibacterial activity by measuring meropenem MIC after 24 hrs by broth microdilution assay (reference value: 640 ug/ml)
[19] = test system: Escherichia coli; assay: Effect on growth of Escherichia coli isolate 1 after 24 hrs by broth microdilution assay; format: organism-based
[20] = test system: Enterobacter cloacae; assay: Effect on growth of Enterobacter cloacae isolate 6 after 24 hrs by broth microdilution assay; format: organism-based
[21] = test system: Enterobacter cloacae; assay: Inhibition of IMP4 in Enterobacter cloacae isolate 16 assessed as potentiation of meropenem-induced antibacterial activity by measuring meropenem MIC after 24 hrs by broth microdilution method (reference value: 64 ug/ml)
[22] = test system: Klebsiella pneumoniae; assay: Effect on growth of Klebsiella pneumoniae isolate 10 after 24 hrs by broth microdilution method; format: organism-based
[23] = test system: Escherichia coli ATCC 25922; assay: Inhibition of IMP-4 in Escherichia coli ATCC 25922 assessed as potentiation of meropenem-induced antibacterial activity by measuring diameter of inhibition zone measured after 18 hrs by agar disk diffusion method
[24] = test system: Klebsiella pneumoniae; assay: Effect on growth of Klebsiella pneumoniae isolate 17 after 24 hrs by broth microdilution method; format: organism-based
[25] = test system: Klebsiella pneumoniae; assay: Inhibition of IMP4 in Klebsiella pneumoniae isolate 13 assessed as potentiation of meropenem-induced antibacterial activity by measuring meropenem MIC after 24 hrs by broth microdilution method (reference value: 320 ug/ml)
[26] = test system: Enterobacter cloacae; assay: Inhibition of NDM1 in Enterobacter cloacae isolate 4 assessed as potentiation of meropenem-induced antibacterial activity by measuring meropenem MIC after 24 hrs by broth microdilution assay (reference value: 640 ug/ml)
[27] = test system: Enterobacter cloacae; assay: Effect on growth of Enterobacter cloacae isolate 15 after 24 hrs by broth microdilution method; format: organism-based
[28] = target: T1, Metallo-beta-lactamase NDM-4 (Escherichia coli); assay: as §1, with “activity by measuring bacterial killing in early exponential phase” for “activity”, “64 ug/ml” for “4 times MIC”; conditions: TDE = time-dependent effect
[29] = test system: Escherichia coli; assay: Effect on growth of Escherichia coli isolate 8 after 24 hrs by broth microdilution assay; format: organism-based
[30] = test system: Escherichia coli; assay: Effect on growth of Escherichia coli isolate 3 after 24 hrs by broth microdilution assay; format: organism-based
[31] = test system: Klebsiella pneumoniae; assay: Effect on growth of Klebsiella pneumoniae isolate 12 after 24 hrs by broth microdilution method; format: organism-based
[32] = target: T1, Metallo-beta-lactamase NDM-4 (Escherichia coli); assay: Inhibition of NDM4 in Escherichia coli ATCC 25922 assessed as potentiation of meropenem-induced antibacterial activity by measuring diameter of inhibition zone measured after 18 hrs by agar disk diffusion method
[33] = test system: Escherichia coli; assay: Inhibition of NDM1 in Escherichia coli isolate 1 assessed as potentiation of meropenem-induced antibacterial activity by measuring meropenem MIC after 24 hrs by broth microdilution assay (reference value: 1280 ug/ml)
[34] = Inhibition of Stenotrophomonas maltophilia NDM1 expressed in Escherichia coli BL21 (DE3) expressing measured after 15 minutes at interval of 60 secs
[35] = test system: Escherichia coli; assay: Inhibition of NDM-7 in Escherichia coli isolate 2 assessed as potentiation of meropenem-induced antibacterial activity by measuring meropenem MIC after 24 hrs by broth microdilution assay (reference value: 640 ug/ml)
[36] = target: T1, Metallo-beta-lactamase NDM-4 (Escherichia coli); assay: as §1, with “activity by measuring bacterial killing in late exponential phase” for “activity”, “64 ug/ml” for “4 times MIC”; conditions: TDE = time-dependent effect

| SMILES | MIC [1] [µg/mL] | inhibition [2] [%] | MIC [3] [µg/mL] | MIC [4] [µg/mL] | MIC [5] [µg/mL] | MIC [6] [µg/mL] | inhibition [7] | MIC [8] [µg/mL] | MIC [9] [µg/mL] | MIC [10] [µg/mL] | MIC [11] [µg/mL] | inhibition [12] | Activity [13] [%] | MIC [14] [µg/mL] | MIC [15] [µg/mL] | inhibition zone (IZ) [16] [mm] | inhibition at 24 h, 1000 ug/mL [17] [%] | MIC [18] [µg/mL] | MIC [19] [µg/mL] | MIC [20] [µg/mL] | further results |
| --- | --- | --- | --- | --- | --- | --- | --- | --- | --- | --- | --- | --- | --- | --- | --- | --- | --- | --- | --- | --- | --- |
| COc1ccc(CN(CCN(Cc2ccc(OC)cc2)Cc2cccc(C(=O)O)n2)Cc2cccc(C(=O)O)n2)cc1 | 2 | 81 | < 0.0312 | 32 (≈ 56.1 µM) | 1 | 0.5 | Active | 32 (≈ 56.1 µM) | 32 (≈ 56.1 µM) | 64 (≈ 112 µM) | 8 | Active | 95 | 0.125 | 64 (≈ 112 µM) | 15.9 | < 50 | 0.5 | 32 (≈ 56.1 µM) | 32 (≈ 56.1 µM) | MIC [21]: 2 µg/mL; MIC [22]: 64 µg/mL (≈ 112 µM); inhibition zone (IZ) [23]: 2 to 5 mm; MIC [24]: 32 µg/mL (≈ 56.1 µM); MIC [25]: 4 µg/mL; MIC [26]: 0.0625 µg/mL; MIC [27]: 32 µg/mL (≈ 56.1 µM); inhibition [28]: Tde; MIC [29]: 64 µg/mL (≈ 112 µM); MIC [30]: 64 µg/mL (≈ 112 µM); MIC [31]: 32 µg/mL (≈ 56.1 µM); inhibition zone (IZ) [32]: 2 to 5 mm; MIC [33]: 0.125 µg/mL; pIC50 [34]: 7.40; MIC [35]: 0.0625 µg/mL; inhibition [36]: Tde |
| O=C(O)c1cccc(CNCCNCc2cccc(C(=O)O)n2)n1 | 2 | 81 | < 0.0312 | 32 (≈ 96.9 µM) | 1 | 0.5 | Active | 32 (≈ 96.9 µM) | 32 (≈ 96.9 µM) | 64 (≈ 194 µM) | 8 | Active | 95 | 0.25 | 64 (≈ 194 µM) | 18.3 | < 50 | 0.5 | 32 (≈ 96.9 µM) | 32 (≈ 96.9 µM) | MIC [21]: 2 µg/mL; MIC [22]: 64 µg/mL (≈ 194 µM); inhibition zone (IZ) [23]: 2 to 5 mm; MIC [24]: 32 µg/mL (≈ 96.9 µM); MIC [25]: 4 µg/mL; MIC [26]: 0.25 µg/mL; MIC [27]: 32 µg/mL (≈ 96.9 µM); inhibition [28]: Tde; MIC [29]: 64 µg/mL (≈ 194 µM); MIC [30]: 32 µg/mL (≈ 96.9 µM); MIC [31]: 64 µg/mL (≈ 194 µM); inhibition zone (IZ) [32]: 2 to 5 mm; MIC [33]: 0.125 µg/mL; pIC50 [34]: 6.77; MIC [35]: 0.125 µg/mL; inhibition [36]: Tde |
